Assay results reported in patent US20230174947A1, “METHODS AND COMPOSITIONS FOR IMPROVING ENDOTHELIAL CELL BARRIER” (United Therapeutics Corporation, priority 2021, published 2023).

Test system: HPAECs
Assay: HPAEC proliferation, cell counts by Hoechst-stained nuclei (Celigo)
Format: cell-based, Human
Details: Forskolin 40 μM, FTY720-P 50 nM, Methylprednisolone 1 μM; MCDB131
Description: HPAECs were seeded at low initial confluency (3000-5000 cells/cm^2) to study their growth on Collagen type-I coated culture dishes. Barrier agonists were added at 0 hours (FIG. 10A) or at 48 hours (FIG. 10B) and were maintained through the remainder of culture. Barrier agonist compounds, when added to the culture medium (MCDB131), were added at the following concentrations: Forskolin (40 μM), FTY720-P (50 nM), Methylprednisolone (1 μM). Cell counts were measured through individual quantification of nuclei, stained with Hoechst dye and imaged on the Celigo Imaging Cytometer (Nexcelom Bioscience).

## CCCCCCCCc1ccc(CC[C@](N)(CO)COP(=O)(O)O)cc1 [FTY720P, fingolimod-phosphate]
  endothelial cell proliferation (summary statement of Example 6): no reduction in endothelial proliferation
